# Target: T1, human orexin type 2 receptor (Homo sapiens, UniProt O43614)
# T1 construct: expressed in transfected cells
# T1 sequence (O43614 1-444): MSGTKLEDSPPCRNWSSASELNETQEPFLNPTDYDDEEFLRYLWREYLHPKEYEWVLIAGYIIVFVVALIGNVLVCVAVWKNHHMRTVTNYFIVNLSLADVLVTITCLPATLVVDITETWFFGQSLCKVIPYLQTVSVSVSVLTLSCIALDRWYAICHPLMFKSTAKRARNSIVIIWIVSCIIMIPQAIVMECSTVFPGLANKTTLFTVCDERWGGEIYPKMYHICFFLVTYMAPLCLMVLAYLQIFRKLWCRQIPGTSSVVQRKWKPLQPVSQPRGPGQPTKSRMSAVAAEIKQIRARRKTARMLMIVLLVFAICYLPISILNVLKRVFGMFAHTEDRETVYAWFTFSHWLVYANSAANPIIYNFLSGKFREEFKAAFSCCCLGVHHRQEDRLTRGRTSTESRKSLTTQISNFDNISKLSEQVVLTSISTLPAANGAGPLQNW
# Assay: Measurement of orexin type 2 receptor agonist activity (calcium fluorescence, CHO cells forcibly expressing human OX2 receptor)
# Type: cell-based
# Settings: compound at 3 μM, DMSO = 0%, orexin A (human) 10 nM = 100%
# From the text: To obtain a cell clone stably expressing human orexin type 2 receptor, human orexin type 2 receptor cDNA was inserted into pcDNA3.1(+) plasmid vector (Invitrogen), and a plasmid DNA for expression of human orexin type 2 receptor (pcDNA3.1(+)/hOX2R) was cloned. The plasmid DNA was introduced into CHO-K1 cell by an electroporation method, and human orexin type 2 receptor-expressing clonal cells were obtained by limiting dilution method using G418 drug resistance as a selection marker.
# CHO cells forcibly expressing human OX2 receptor were seeded in each well of 384 well black transparent bottom plate (BD Falcon) at 10,000 cells/well, and cultured for one day in a 5% CO2 incubator at 37° C. After removal of the medium in the cell plate, assay buffer A containing a calcium indicator (HBSS (Thermo Fisher Scientific), 20 mM HEPES (Thermo Fisher Scientific), 0.1% BSA (Sigma-Aldrich), 2.5 μg/mL Fluo-4 AM (DOJINDO Chemical), 0.08% Pluronic F127 (DOJINDO Chemical), 1.25 mM probenecid (DOJINDO Chemical)) was added thereto at 30 μL/well. The plate was stood for 30 min in a 5% CO2 incubator at 37° C., and further stood at room temperature for 30 min. A test compound prepared by diluting with assay buffer B (HBSS, 20 mM HEPES, 0.1% BSA) was added thereto at 10 μL/well, and the fluorescence value was measured by FDSSμCELL (Hamamatsu Photonics K.K.) every one sec for 1 min, and thereafter every two sec for 1 min 40 sec. The activity (%) of the test compound was calculated assuming that variation in the fluorescence value when DMSO was added instead of the test compound was 0%, and variation in the fluorescence value when orexin A (human) (PEPTIDE INSTITUTE, INC.) was added at the final concentration of 10 nM was 100%.
row,Compound,"OX2R agonist activity (3 μM, %)"
1,"Cc1ccc2n(c1=O)C(COC1CCC(CC3CC3)CC1)C(NS(C)(=O)=O)CC2 (racemic) [Example 87, rac-N-[(3S,4R)-4-({[(1s,4S)-4-(cyclopropylmethyl)cyclohexyl]oxy}methyl)-7-methyl-6-oxo-1,3,4,6-tetrahydro-2H-quinolizin-3-yl]methanesulfonamide]",89%
2,"Cc1ccccc1C1CCC(OCC2C(NS(=O)(=O)N(C)C)CCc3ccc(C)c(=O)n32)CC1 (racemic) [Example 31, rac-N,N-dimethyl-N′-[(3S,4R)-7-methyl-4-({[(1s,4S)-4-(2-methylphenyl)cyclohexyl]oxy}methyl)-6-oxo-1,3,4,6-tetrahydro-2H-quinolizin-3-yl]sulfuric diamide]",89%
3,"Cc1ccc2n(c1=O)C(COC1CCC(c3ccccc3)CC1)C(NS(=O)(=O)C1CC1)CC2 (racemic) [Example 16, rac-N-[(3S,4R)-7-methyl-6-oxo-4-({[(1s,4S)-4-phenylcyclohexyl]oxy}methyl)-1,3,4,6-tetrahydro-2H-quinolizin-3-yl]cyclopropanesulfonamide]",91%
4,"Cc1ccc2n(c1=O)C(COC1CCC(COC(C)C)CC1)C(NS(C)(=O)=O)CC2 (racemic) [Example 92, rac-N-[(3S,4R)-7-methyl-6-oxo-4-({[(1s,4S)-4-([(propan-2-yl)oxy]methyl}cyclohexyl]oxy}methyl)-1,3,4,6-tetrahydro-2H-quinolizin-3-yl]methanesulfonamide]",90%
5,"CCCCCC1CCC(OCC2C(NS(=O)(=O)C3CC3)CCc3ccc(C)c(=O)n32)CC1 (racemic) [Example 76, rac-N-[(3S,4R)-7-methyl-6-oxo-4-({[(1r,4S)-4-pentylcyclohexyl]oxy}methyl)-1,3,4,6-tetrahydro-2H-quinolizin-3-yl]cyclopropanesulfonamide]",93%
6,"Cc1ccc2n(c1=O)C(COC1CCC(OCC3CC3)CC1)C(NS(C)(=O)=O)CC2 [Example 114, rel-N-[(3S,4R)-4-(([(1s,4S)-4-(cyclopropylmethoxy)cyclohexyl]oxy}methyl)-7-methyl-6-oxo-1,3,4,6-tetrahydro-2H-quinolizin-3-yl]methanesulfonamide]",69%
7,"Cc1ccc2n(c1=O)C(COC1CCC(C3CC3C)CC1)C(NS(C)(=O)=O)CC2 (racemic) [Example 97, N-{7-methyl-4-[({(1S,4S)-4-[(1RS,2SR)-2-methylcyclopropyl]cyclohexyl)oxy)methyl]-6-oxo-1,3,4,6-tetrahydro-2H-quinolizin-3-yl]methanesulfonamide]",94%
8,"CC#CC1CCC(OCC2C(NS(=O)(=O)NC)CCc3ccc(C)c(=O)n32)CC1 [Example 149, rel-N-methyl-N′-[(3S,4R)-7-methyl-6-oxo-4-({[(1s,4S)-4-(prop-1-yn-1-yl)cyclohexyl]oxy}methyl)-1,3,4,6-tetrahydro-2H-quinolizin-3-yl]sulfuric diamide]",95%
9,"CCCOC1CCC(OCC2C(NS(C)(=O)=O)CCc3ccc(C)c(=O)n32)CC1 [Example 107, rel-N-[(3S,4R)-7-methyl-6-oxo-4-({[(1s,4S)-4-propoxycyclohexyl]oxy}methyl)-1,3,4,6-tetrahydro-2H-quinolizin-3-yl]methanesulfonamide]",65%
10,"CCS(=O)(=O)NC1CCc2ccc(C)c(=O)n2C1COC1CCC(c2ccccc2)CC1 (racemic) [Example 15, rac-N-[(3S,4R)-7-methyl-6-oxo-4-({[(1s,4S)-4-phenylcyclohexyl]oxy}methyl)-1,3,4,6-tetrahydro-2H-quinolizin-3-yl]ethanesulfonamide]",96%
11,"Cc1ccc2n(c1=O)C(COC1CCC(C(C)(C)C)CC1)C(NS(C)(=O)=O)CC2 (racemic) [Example 17, rac-N-[(3S,4R)-4-({[(1s,4S)-4-tert-butylcyclohexyl]oxy}methyl)-7-methyl-6-oxo-1,3,4,6-tetrahydro-2H-quinolizin-3-yl]methanesulfonamide]",86%
12,"COc1ccccc1C1CCC(OCC2C(NS(C)(=O)=O)CCc3ccc(C)c(=O)n32)CC1 [Example 90, rel-N-[(3S,4R)-4-({[(1s,4S)-4-(2-methoxyphenyl)cyclohexyl]oxy}methyl)-7-methyl-6-oxo-1,3,4,6-tetrahydro-2H-quinolizin-3-yl]methanesulfonamide]",87%
13,"Cc1ccc2n(c1=O)C(COC1CCC(C)CC1)C(NS(C)(=O)=O)CC2 [Example 5, rel-N-[(3S,4R)-7-methyl-4-({[(1r,4R)-4-methylcyclohexyl]oxy}methyl)-6-oxo-1,3,4,6-tetrahydro-2H-quinolizin-3-yl]methanesulfonamide]",112%
14,"Cc1ccc(C2CCC(OCC3C(NS(=O)(=O)N(C)C)CCc4ccc(C)c(=O)n43)CC2)cc1 (racemic) [Example 35, rac-N,N-dimethyl-N′-[(3S,4R)-7-methyl-4-({[(1s,4S)-4-(4-methylphenyl)cyclohexyl]oxy}methyl)-6-oxo-1,3,4,6-tetrahydro-2H-quinolizin-3-yl]sulfuric diamide]",88%
15,"CCCCC1CCC(OCC2C(NS(C)(=O)=O)CCc3ccc(C)c(=O)n32)CC1 (racemic) [Example 80, rac-N-[(3S,4R)-4-({[(1r,4S)-4-butylcyclohexyl]oxy}methyl)-7-methyl-6-oxo-1,3,4,6-tetrahydro-2H-quinolizin-3-yl]methanesulfonamide]",99%
16,"CC1CCC(OCC2C(NS(C)(=O)=O)CCc3ccc(C4CC4)c(=O)n32)CC1 [Example 105, rel-N-[(3S,4R)-7-cyclopropyl-4-({[(1s,4S)-4-methylcyclohexyl]oxy)methyl)-6-oxo-1,3,4,6-tetrahydro-2H-quinolizin-3-yl]methanesulfonamide]",84%
17,"C=CC1CCC(OCC2C(NS(C)(=O)=O)CCc3ccc(C)c(=O)n32)CC1 (racemic) [Example 99, rac-N-[(3S,4R)-4-({[(1s,4S)-4-ethenylcyclohexyl]oxy}methyl)-7-methyl-6-oxo-1,3,4,6-tetrahydro-2H-quinolizin-3-yl]methanesulfonamide]",91%
18,"Cc1ccccc1C1CCC(OCC2C(NS(=O)(=O)C3CC3)CCc3ccc(C)c(=O)n32)CC1 (racemic) [Example 20, rac-N-[(3S,4R)-7-methyl-4-({[(1s,4S)-4-(2-methylphenyl)cyclohexyl]oxy}methyl)-6-oxo-1,3,4,6-tetrahydro-2H-quinolizin-3-yl]cyclopropanesulfonamide]",97%
19,"Cc1ccc2n(c1=O)C(COC1CCC(C(F)(F)F)CC1)C(NS(C)(=O)=O)CC2 (racemic) [Example 37, rac-N-[(3S,4R)-7-methyl-6-oxo-4-({[(1s,4S)-4-(trifluoromethyl)cyclohexyl]oxy}methyl)-1,3,4,6-tetrahydro-2H-quinolizin-3-yl]methanesulfonamide]",94%
20,"Cc1ccc2n(c1=O)C(COC1CCC(C(C)C)CC1)C(NS(=O)(=O)C1CC1)CC2 (racemic) [Example 14, rac-N-[(3S,4R)-7-methyl-6-oxo-4-({[(1s,4S)-4-(propan-2-yl)cyclohexyl]oxy}methyl)-1,3,4,6-tetrahydro-2H-quinolizin-3-yl]cyclopropanesulfonamide]",100%
21,"CCOCC1CCC(OCC2C(NS(C)(=O)=O)CCc3ccc(C)c(=O)n32)CC1 (racemic) [Example 81, rac-N-[(3S,4R)-4-({[(1s,4S)-4-(ethoxymethyl)cyclohexyl]oxy}methyl)-7-methyl-6-oxo-1,3,4,6-tetrahydro-2H-quinolizin-3-yl]methanesulfonamide]",102%
22,"Cc1ccc2n(c1=O)C(COC1CCC(c3ccccc3)CC1)C(NS(=O)(=O)N(C)C)CC2 (racemic) [Example 29, rac-N,N-dimethyl-N′-[(3S,4R)-7-methyl-6-oxo-4-({[(1s,4S)-4-phenylcyclohexyl]oxy}methyl)-1,3,4,6-tetrahydro-2H-quinolizin-3-yl]sulfuric diamide]",83%

# Source: patent US12448377B2, “Heterocyclic compound” (Takeda Pharmaceutical Company Limited, priority 2019, dated 2025)
